{"source": "patent US12612650B2", "about": "“Methods for improved homologous recombination and compositions thereof” (LIFE TECHNOLOGIES CORPORATION, priority 2017, dated 2026)", "system": "genomic locus of beta-actin", "assay": "OFP-positive cells by flow cytometry after electroporation of Cas9 RNP and donor DNA into human primary T cells", "type": "cell-based", "settings": "30 μM, 48 hours", "method": "Human peripheral blood mononuclear cells (PBMCs) were isolated from peripheral blood using Ficoll-Paque PLUS density gradient according to manufacturer's instructions. The human primary T cells were then isolated using DYNABEADS™ UNTOUCHED™ Human T Cells Kit and expanded using OPTMIZER™ CTS™ T-Cell Expansion SFM supplemented with 200 IU/mL of IL-2. The activation and expansion of human T cells were carried out using DYNABEADS™ Human T-Expander CD3/CD28 kit. On day 3 of activation, T cells were harvested for transfection.\nFor transfection of primary T cells, 1×10^5 cells were used per NEON® electroporation with voltage set at 1700V, pulse width set at 20 ms, and the number of pulses set at 1, respectively. […] Cells were analyzed at 48 hours post transfection.\nTraditionally, a plasmid donor was used to incorporate large DNA molecules into the genome. […] At 48 hours post transfection, we analyzed the percentages of OFP-positive cells using flow cytometry. […]\nLinear ds- or ss-DNA donor could be degraded in vivo by exonucleases. […] At 48 hours post transfection, the percentages of OFP-positive cells were determined by flow cytometric analysis. […]\nThe disruption of NHEJ repair pathway is known to improve HDR efficiency. […] At 48 hours post transfection, we analyzed the cells by flow cytometry."}
{"smiles": "O=c1cc(N2CCOCC2)oc2c1ccc1ccccc12", "note": "[Nu7026, 2-(4-Morpholinyl)-4H-naphthol[1,2-b]pyran-4-one]", "values": [{"measurement": "increase of the percentage of OFP-positive cells", "setting": "amine-modified donor DNA", "result": "~2", "unit": "fold"}, {"measurement": "increase of the percentage of OFP-positive cells", "setting": "unmodified donor DNA", "result": "approximately 5 fold"}]}
